Literature values, collected in patent US11612614B2, “Isomorphs of Remdesivir and methods for synthesis of same” (Anzalp Pharmasolutions Pvt. Ltd., priority 2020, dated 2023).
“Also recorded” adds a separate entry of the source.

Legend:
[1] = not given; remark: listed apart in the source

solubility in ethanol (ethanol): soluble
chemical stability in aqueous media [1]: chemically unstable
SMILES: CCC(CC)COC(=O)[C@H](C)N[P@](=O)(OC[C@H]1O[C@@](C#N)(c2ccc3c(N)ncnn23)[C@H](O)[C@@H]1O)Oc1ccccc1 [Remdesivir, 2-ethylbutyl (2S)-2-[[[(2R,3S,4R,5R)-5-(4-aminopyrrolo[2,1-f][1,2,4]triazin-7-yl)-5-cyano-3,4-dihydroxyoxolan-2-yl]methoxy-phenoxyphosphoryl]amino]propanoate]
solubility in water (water): practically insoluble; also recorded: relatively insoluble
